Patent US11078534B2, “Photocleavable nucleotide reagents with high stability” (Roche Molecular Systems, Inc., priority 2017, dated 2021)

Columns and labels:
[1] = Thermostability study at 65° C. (UPLC-MS); type: physicochemical; details: up to 120 h; for degradation at 65° C. (percentage of starting material and degradation products, peak areas at 260 nm): 300 μM, 40% DMSO, 1.0 M potassium acetate
Protocol: An aqueous mixture was prepared, containing 300 μM dATP-SPh-NPP, 40% DMSO and 1.0 M potassium acetate. For reference another mixture with 300 μM dATP replacing dATP-SPh-NPP was prepared. 150 μL of each mixture were incubated at 65° C. in a Thermoshaker. After 0, 2, 18, 25, and 120 h samples of each solution (20 μL) were analyzed by UPLC-MS (Ultra performance liquid chromatography—mass spectrometry). The peak areas at 260 nm were used to calculate the percentage of starting material and degradation products.

[2] = Photocleavage by UV-LED irradiation (UPLC-MS); type: physicochemical; details: UV-LED λmax=393 nm
Protocol: Two aqueous mixtures of dATP-SPh-NPP and ATP-DMNPE (300 μM each) were prepared in sodium phosphate buffer (100 mM, pH 7.0). Both samples were irradiated simultaneously with light from an UV-LED lamp (InGaN, Quantum well, λmax=393 nm, 0.18 W/LED) in open vials without shaking or stirring. After 0, 1, 2, 4, 8, and 16 min. the irradiation was shortly paused for sample removal (20 μL) and subsequent UPLC-MS analysis. The peak areas at 260 nm were used to calculate the percentage of starting material and photocleavage products. The molecular identities of the starting materials and cleavage products were confirmed by mass spectrometry.

[3] = test system: polymerase enzyme; assay: Real-Time PCR (TaqMan PCR) amplification with caged dATP, with and without UV exposure; type: biochemical; details: 400 μM dATP-SPh-NPP instead of dATP, 400 cp target DNA
Protocol: Real-Time PCR (TaqMan® PCR) mixtures with a total volume of 50 μL were prepared by combining three components termed PCR master mixture (20 μL), buffer mixture (20 μL), and dNTP mixture (10 μL). All PCR components were prepared from DEPC water. The PCR master mixture contained tricine buffer (pH 8.2), potassium acetate, glycerol, DMSO, detergent, target DNA (400 cp), polymerase aptamer, probe, primers, SYBR green dye, and polymerase enzyme. The buffer mixture contained manganese acetate (8.3 mM) and imidazole (0, 3.0, or 6.0 mM). The dNTP mixture contained dATP (400 μM), dCTP (400 μM), dGTP (400 μM), and dUTP (800 μM). Another dNTP mixture contained dATP-SPh-NPP (400 μM) instead of dATP. The final concentration of DNA target was 400 cp/reaction.
TaqMan® PCRs of equal composition were positioned on two separate sections of a 96-well plate. Each section contained PCR mixtures with regular dNTPs and PCR mixtures containing dATP-SPh-NPP. Each PCR was prepared as triplicate. One section of the plate was covered with aluminum foil, whereas the other section was exposed to light from an UV-LED lamp (InGaN, Quantum well, λmax=393 nm, 0.18 W/LED) for 8.0 min. at room temperature. […] The analysis of PCR growth curves was performed from fluorescence data collected in the Cy5.5 channel, while analysis of melting curves was based on fluorescence data collected in the FAM channel (465-510 nm).

[4] = 5′-hydroxyl protecting group on phosphoramidites; cited from earlier work

irradiation time for full cleavage ([2]; 300 μM, 100 mM sodium phosphate buffer pH 7.0) [min] | photocleavage speed compared to ATP-DMNPE ([2]; both irradiated simultaneously, pH 7.0) | dATP released by irradiation ([2]; irradiation for 5 minutes, 300 μM, 100 mM sodium phosphate buffer pH 7.0) [%] | PCR amplification after UV irradiation ([3]; UV light for 8.0 min. at room temperature) | PCR amplification, no UV exposure ([3]; no UV exposure) | Molecule | degradation at 65° C. (percentage of starting material and degradation products, peak areas at 260 nm) [1] | thermostability compared to dATP [1] | increase in photo-deprotection efficiency compared to conventional NPPOC [4] [fold]
8 | significantly faster | > 90 | leads to DNA amplification | prevents PCR amplification | thiophenyl o-nitrophenylpropyl dATP [dATP-SPh-NPP] | no degradation products were observed | significantly more thermostable than dATP | –
– | – | – | – | – | thiophenyl-2-(2-nitrophenyl)-propoxycarbonyl [SPh-NPPOC] | – | – | 12
– | – | – | – | – | Nc1ncnc2c1ncn2[C@H]1C[C@H](O)[C@@H](COP(=O)(O)OP(=O)(O)OP(=O)(O)O)O1 [dATP, reference compound] | quickly degraded to the mono- and diphosphates | – | –
